Data as given in patent US12060360B2, “Lysyl oxidase inhibitors” (The Institute of Cancer Research: Royal Cancer Hospital, priority 2017, dated 2024).

molecular target: T1, LOX (Mus musculus, UniProt P28301); assay: LOX activity in cysts assay (LOX-roGFP2 biosensor, MDCK cysts); format: cell-based; settings: 10 uM; MDCK cysts; inhibitor added 30 min prior to imaging; DMSO = 0%, BAPN 1 mM = 100% inhibition; read-out: LOX biosensor inhibition (cyst) @ 10 uM
T1 construct: Full length LOX cDNA was then PCR cloned into pEGFP-N1 (Clonetech), or biosensor vector proGFP2-N1; expressed in transfected cells; host or cells: MDCK cells grown as cysts on Matrigel, G418-selected
T1 sequence (P28301 163-411): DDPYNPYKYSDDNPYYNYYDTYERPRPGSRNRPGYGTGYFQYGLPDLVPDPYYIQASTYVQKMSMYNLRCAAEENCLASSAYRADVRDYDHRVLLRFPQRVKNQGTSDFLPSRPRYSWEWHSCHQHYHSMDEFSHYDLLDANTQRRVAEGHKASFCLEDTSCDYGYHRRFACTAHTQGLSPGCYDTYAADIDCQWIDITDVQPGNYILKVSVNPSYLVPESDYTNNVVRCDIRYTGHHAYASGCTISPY
Protocol: LOX Activity in Cysts Assay (Tang et al, 2017).
All cell lines used in this study were purchased from American Type Culture Collection (ATCC). Mycoplasma contamination was routinely monitored by PCR. Cells used were not found to be Mycoplasma positive. MDCK cell lines were cultured in Dulbecco's Modified Eagle Medium (DMEM) supplemented with 10% fetal bovine serum (FBS) and 1% Penicillin Streptomycin solution (Pen Strep). For GFP constructs transfection in MDCK cells, lipofectamine 3000 was used according to manufactures protocols. Cells were either selected with G418 (Life Technologies) at 5 mg/ml. All cell culture reagents were purchased from Life Technologies.
To produce MDCK cysts, cells were cultured on Matrigel (Corning) with 2% Matrigel supplemented in DMEM with 10% FBS. Cysts were allowed to form for 10 days before subsequent studies.
Mouse LOX cDNA was purchased from OriGene. Full length LOX cDNA was then PCR cloned into pEGFP-N1 (Clonetech), or biosensor vector proGFP2-N1 (Hanson, 2004) using the following primers, […] (forward primer) and […] (reverse primer). For the insertion into pEGFP-N1 or proGFP2-N1, NheI and XhoI restriction sites were added to forward and reverse primers accordingly. Mutant LOX constructs were made using QuickChange II site-directed mutagenesis kit (Agilent Technologies) following manufacture's protocol using LOX-GFP as template. To generate, roGFP2 versions of LOX mutant constructs, LOX mutant cDNA was transferred from pEGFP-N1 to proGFP2-N1 using NheI and XhoI.
All photomicrographs were taken with a Leica TCS SP8 X confocal system. For LOX biosensor imaging, live MDCK cysts were used. The oxidised biosensor was excited using a 405 nm laser, while the reduced biosensor was excited with a 488 nm laser. Emission of the biosensor was recorded at 500 nm˜530 nm range using sequential scans. Ratio images were generated following a published protocol {Kardash, 2011 #376}. Note, while the published protocol generates YFP/CFP ratio images, we used it to generate Oxidised/Reduced (roGFP2 ratio) ratio images. The roGFP2 ratio at the basal surface of MDCK cysts was used to indicate LOX inhibition. LOX inhibitors were added 30 min prior to imaging.
For clarity, readout for DMSO treated cysts represents 0% inhibition (no inhibition) and readout for BAPN at 1 mM is used as 100% inhibition (full inhibition).

How did the inhibition at 10 µM turn out when `CCCS(=O)(=O)N1C[C@@H]2CN(c3ccc(OCC)cc3)[C@H](C1)C(C)(C)C2` [Example 54, (1S,5S)-6-(4-ethoxyphenyl)-9,9-dimethyl-3-(propylsulfonyl)-3,6-diazabicyclo[3.2.2]nonane] was run?
The inhibition at 10 µM was 54%.

For `CCOc1cccc(N2C[C@H]3CN(C(=O)NCCO)C[C@@H]2C(C)(C)C3)c1` [Example 24, (1S,5S)-6-(3-ethoxyphenyl)-N-(2-hydroxyethyl)-9,9-dimethyl-3,6-diazabicyclo[3.2.2]nonane-3-carboxamide], which inhibition at 10 µM is on record?
Its inhibition at 10 µM is 100%.

How did the inhibition at 10 µM turn out when `CCOc1ccc(N2C[C@H]3CN(C(=O)NC[C@@H](O)CO)C[C@@H]2C(C)(C)C3)cc1` [Example 19, (1S,5S)-N-((R)-2,3-dihydroxypropyl)-6-(4-ethoxyphenyl)-9,9-dimethyl-3,6-diazabicyclo[3.2.2]nonane-3-carboxamide] was run?
Its inhibition at 10 µM is 100%.

`CCOc1ccc(N2C[C@@H]3CN(C(=O)NCCO)C[C@H]2C(C)(C)C3)cc1` [Example 21, (1R,5R)-6-(4-ethoxyphenyl)-N-(2-hydroxyethyl)-9,9-dimethyl-3,6-diazabicyclo[3.2.2]nonane-3-carboxamide] was tested. Which inhibition at 10 µM did it give?
Its inhibition at 10 µM is 94%.

How did the inhibition at 10 µM turn out when `CCCCc1ccc(N2C[C@H]3CN(C(=O)NCCO)C[C@@H]2C(C)(C)C3)cc1` [Example 33, (1S,5S)-6-(4-butylphenyl)-N-(2-hydroxyethyl)-9,9-dimethyl-3,6-diazabicyclo[3.2.2]nonane-3-carboxamide] was run?
The inhibition at 10 µM was 69.3%.

How did the inhibition at 10 µM turn out when `CC1(C)C[C@@H]2CN(C(=O)N3CCS(=O)(=O)CC3)C[C@H]1N(c1ccc3c(c1)OCCO3)C2` [Example 63, ((1 S,5S)-6-(2,3-dihydrobenzo[b][1,4]dioxin-6-yl)-9,9-dimethyl-3,6-diazabicyclo[3.2.2]nonan-3-yl)(1,1-dioxidothiomorpholino)methanone] was run?
The inhibition at 10 µM was 100%.

`CCOc1ccc(N2C[C@H]3CN(C(=O)N4CC[C@H](O)C4)C[C@@H]2C(C)(C)C3)cc1` [Example 15, ((1S,5S)-6-(4-ethoxyphenyl)-9,9-dimethyl-3,6-diazabicyclo[3.2.2]nonan-3-yl)((S)-3-hydroxypyrrolidin-1-yl)methanone] was tested. Which inhibition at 10 µM did it give?
The inhibition at 10 µM was 84%.

For `CCOc1ccc(N2C[C@H]3CN(C(=O)NNCCO)C[C@@H]2C(C)(C)C3)cc1` (stereo in doubt) [Example 29, 6-(4-ethoxyphenyl)-N′-(2-hydroxyethyl)-9,9-dimethyl-3,6-diazabicyclo[3.2.2]nonane-3-carbohydrazide], which inhibition at 10 µM is on record?
The inhibition at 10 µM was 100%.

For `CC1(C)C[C@@H]2CN(C(=O)NCCO)C[C@H]1N(c1ccc(C=O)cc1)C2` [Example 37, (1 S,5S)-6-(4-Formylphenyl)-N-(2-hydroxyethyl)-9,9-dimethyl-3,6-diazabicyclo[3.2.2]nonane-3-carboxamide], which inhibition at 10 µM is on record?
Its inhibition at 10 µM is 86%.

Which inhibition at 10 µM does the source give for `CCOc1ccc(N2C[C@H]3CN(Cc4ccc(Cl)cc4)C[C@@H]2C(C)(C)C3)cc1` [Example 40, (1R,5S)-3-(4-chlorobenzyl)-6-(4-ethoxyphenyl)-9,9-dimethyl-3,6-diazabicyclo[3.2.2]nonane] here?
The inhibition at 10 µM was 68%.

With `CC1(C)C[C@@H]2CN(C(=O)N3CCN(S(C)(=O)=O)CC3)C[C@H]1N(c1ccc(N3CCS(=O)(=O)CC3)cc1)C2` [Example 61, ((1S,5S)-6-(4-(1,1-dioxidothiomorpholino)phenyl)-9,9-dimethyl-3,6-diazabicyclo[3.2.2]nonan-3-yl)(4-(methylsulfonyl)piperazin-1-yl)methanone] as the compound, how does the inhibition at 10 µM read?
Its inhibition at 10 µM is 79%.

Which inhibition at 10 µM does the source give for `CC1(C)C[C@@H]2CN(C(=O)NCCO)C[C@H]1N(c1ccc(N3CCC(F)(F)CC3)cc1)C2` [Example 30, (1S,5S)-6-(4-(4,4-difluoropiperidin-1-yl)phenyl)-N-(2-hydroxyethyl)-9,9-dimethyl-3,6-diazabicyclo[3.2.2]nonane-3-carboxamide] here?
Its inhibition at 10 µM is 100%.

Which inhibition at 10 µM does the source give for `CCOc1ccc(N2C[C@H]3CC(C)(C)[C@@H]2CCN3C(=O)NCCO)cc1` [Example 22, (1R,5S)-6-(4-ethoxyphenyl)-N-(2-hydroxyethyl)-9,9-dimethyl-2,6-diazabicyclo[3.2.2]nonane-2-carboxamide] here?
Its inhibition at 10 µM is 100%.

For `COc1cc(OC)cc(N2C[C@H]3CN(C(=O)N4CCS(=O)(=O)CC4)C[C@@H]2C(C)(C)C3)c1` [Example 65, ((1S,5S)-6-(3,5-dimethoxyphenyl)-9,9-dimethyl-3,6-diazabicyclo[3.2.2]nonan-3-yl)(1,1-dioxidothiomorpholino)methanone], which inhibition at 10 µM is on record?
The inhibition at 10 µM was 88%.

How did the inhibition at 10 µM turn out when `CC1(C)C[C@@H]2CN(c3ccc(N4CCS(=O)(=O)CC4)cc3)[C@H]1CCN2C(=O)N1CCS(=O)(=O)CC1` [Example 9, (1,1-dioxidothiomorpholino)((1R,5S)-6-(4-(1,1-dioxidothiomorpholino)phenyl)-9,9-dimethyl-2,6-diazabicyclo[3.2.2]nonan-2-yl)methanone] was run?
The inhibition at 10 µM was 100%.

For `CCOc1ccc(N2C[C@H]3CN(C(=O)CCC#N)C[C@@H]2C(C)(C)C3)cc1` [Example 50, 4-((1S,5S)-6-(4-Ethoxyphenyl)-9,9-dimethyl-3,6-diazabicyclo[3.2.2]nonan-3-yl)-4-oxobutanenitrile], which inhibition at 10 µM is on record?
The inhibition at 10 µM was 57%.

How did the inhibition at 10 µM turn out when `CC1(C)C[C@@H]2CN(C(=O)NCCO)C[C@H]1N(c1ccc(Oc3ccccn3)cc1)C2` [Example 28, (1S,5S)-N-(2-hydroxyethyl)-9,9-dimethyl-6-(4-(pyridin-2-yloxy)phenyl)-3,6-diazabicyclo[3.2.2]nonane-3-carboxamide] was run?
Its inhibition at 10 µM is 100%.

How did the inhibition at 10 µM turn out when `CCNC(=O)N1C[C@@H]2CN(c3ccc(OCCOC)cc3)[C@H](C1)C(C)(C)C2` [Example 3, (1S,5S)—N-ethyl-6-(4-(2-methoxyethoxy)phenyl)-9,9-dimethyl-3,6-diazabicyclo[3.2.2]nonane-3-carboxamide] was run?
Its inhibition at 10 µM is 88%.

Which inhibition at 10 µM does the source give for `CCOc1ccc(N2C[C@H]3CN(C(=O)N(C)CCC#N)C[C@@H]2C(C)(C)C3)cc1` [Example 16, (1S,5S)-N-(2-cyanoethyl)-6-(4-ethoxyphenyl)-N,9,9-trimethyl-3,6-diazabicyclo[3.2.2]nonane-3-carboxamide] here?
Its inhibition at 10 µM is 88%.

`CCOc1ccc(N2C[C@H]3CN(S(=O)(=O)c4ccc(F)cc4)C[C@@H]2C(C)(C)C3)cc1` [Example 55, (1S,5S)-6-(4-ethoxyphenyl)-3-((4-fluorophenyl)sulfonyl)-9,9-dimethyl-3,6-diazabicyclo[3.2.2]nonane] was tested. Which inhibition at 10 µM did it give?
The inhibition at 10 µM was 100%.

With `CCOc1ccc(N2C[C@@H]3CC4(CCCCC4)[C@H]2CCN3C(=O)NCCO)cc1` [Example 23, (1S,5R)-6-(4-ethoxyphenyl)-N-(2-hydroxyethyl)-2,6-diazaspiro[bicyclo[3.2.2]nonane-9,1′-cyclohexane]-2-carboxamide] as the compound, how does the inhibition at 10 µM read?
The inhibition at 10 µM was 100%.

Which inhibition at 10 µM does the source give for `CCOc1ccc(N2C[C@H]3CN(C(=O)CCc4cccnc4)C[C@@H]2C(C)(C)C3)cc1` [Example 52, 1-((1S,5S)-6-(4-ethoxyphenyl)-9,9-dimethyl-3,6-diazabicyclo[3.2.2]nonan-3-yl)-3-(pyridin-3-yl)propan-1-one] here?
Its inhibition at 10 µM is 100%.

Which inhibition at 10 µM does the source give for `CC1(C)C[C@@H]2CN(C(=O)N3CCS(=O)(=O)CC3)C[C@H]1N(c1ccc(N3CCN(S(C)(=O)=O)CC3)cc1)C2` [Example 31, ((1S,5S)-9,9-dimethyl-6-(4-(4-(methylsulfonyl)-1λ4-piperazin-1-yl)phenyl)-3,6-diazabicyclo[3.2.2]nonan-3-yl)(1,1-dioxidothiomorpholino)methanone] here?
The inhibition at 10 µM was 100%.

For `CCOc1ccc(N2C[C@H]3CN(c4ccc(NC(C)=O)cc4)C[C@@H]2C(C)(C)C3)cc1` [Example 58, N-(4-((1R,5S)-6-(4-ethoxyphenyl)-9,9-dimethyl-3,6-diazabicyclo[3.2.2]nonan-3-yl)phenyl)acetamide], which inhibition at 10 µM is on record?
Its inhibition at 10 µM is 100%.

same assay, conditions: MDCK cysts, roGFP2 ratio at basal surface; read-out: LOX biosensor IC50 (cyst)

For `CCOc1cccc(N2C[C@H]3CN(C(=O)NCCO)C[C@@H]2C(C)(C)C3)c1` [Example 24, (1S,5S)-6-(3-ethoxyphenyl)-N-(2-hydroxyethyl)-9,9-dimethyl-3,6-diazabicyclo[3.2.2]nonane-3-carboxamide], which IC50 is on record?
Its IC50 is < 630 nM.

How did the IC50 turn out when `CC1(C)C[C@@H]2CN(C(=O)NCCO)C[C@H]1N(c1ccc(N3CCC(F)(F)CC3)cc1)C2` [Example 30, (1S,5S)-6-(4-(4,4-difluoropiperidin-1-yl)phenyl)-N-(2-hydroxyethyl)-9,9-dimethyl-3,6-diazabicyclo[3.2.2]nonane-3-carboxamide] was run?
The IC50 was 330 nM.

`CC1(C)C[C@@H]2CN(c3ccc(N4CCS(=O)(=O)CC4)cc3)[C@H]1CCN2C(=O)N1CCS(=O)(=O)CC1` [Example 9, (1,1-dioxidothiomorpholino)((1R,5S)-6-(4-(1,1-dioxidothiomorpholino)phenyl)-9,9-dimethyl-2,6-diazabicyclo[3.2.2]nonan-2-yl)methanone] was tested. Which IC50 did it give?
Its IC50 is 690 nM.

With `CCOc1ccc(N2C[C@@H]3CC4(CCCCC4)[C@H]2CCN3C(=O)NCCO)cc1` [Example 23, (1S,5R)-6-(4-ethoxyphenyl)-N-(2-hydroxyethyl)-2,6-diazaspiro[bicyclo[3.2.2]nonane-9,1′-cyclohexane]-2-carboxamide] as the compound, how does the IC50 read?
Its IC50 is 370 nM.

How did the IC50 turn out when `CC1(C)C[C@@H]2CN(C(=O)N3CCS(=O)(=O)CC3)C[C@H]1N(c1ccc(N3CCN(S(C)(=O)=O)CC3)cc1)C2` [Example 31, ((1S,5S)-9,9-dimethyl-6-(4-(4-(methylsulfonyl)-1λ4-piperazin-1-yl)phenyl)-3,6-diazabicyclo[3.2.2]nonan-3-yl)(1,1-dioxidothiomorpholino)methanone] was run?
Its IC50 is < 180 nM.

same assay, conditions: MDCK, read-out: LOX biosensor inhibition (cyst) @ 10 uM

For `CC1(C)C[C@@H]2CN(C(=O)NCCO)C[C@H]1N(c1ccc(SCCO)cc1)C2` [Example 34, (1S,5S)-N-(2-Hydroxyethyl)-6-(4-((2-hydroxyethyl)thio)phenyl)-9,9-dimethyl-3,6-diazabicyclo[3.2.2]nonane-3-carboxamide], which inhibition at 10 µM is on record?
Its inhibition at 10 µM is 100%.
